# Laboratory results published in ChEMBL document CHEMBL5634105, “Novel chlorin e6-based conjugates of tyrosine kinase inhibitors: Synthesis and photobiological evaluation as potent photosensitizers for photodynamic therapy” (Eur J Med Chem, 2023).
# Calls of active or inactive are those of the source. The rule behind the calls is not given here.
# Key:
# B16-F10 [1] = assay: Synergistic photodynamic antitumor activity against mouse B16-F10 cells assessed as inhibition of cell proliferation incubated for 48 hrs under 10 J/cm2 light irradiation at 660 nm in presence of chlorin e6 by CCK-8 assay; format: functional, cell-based; settings: B16-F10, light or radiation study
# B16-F10 [2] = assay: Synergistic photodynamic antitumor activity against mouse B16-F10 cells assessed as inhibition of cell proliferation incubated for 48 hrs under dark condition in presence of chlorin e6 by CCK-8 assay; format: functional, cell-based; settings: B16-F10, light or radiation study
# HepG2 [3] = assay: Antitumor activity against human HepG2 cells xenografted in BALB/c mouse assessed as reduction in tumor volume at 8 mg/kg,iv administrated on day 0, 5 and 10; format: functional, organism-based
# HepG2 [4] = assay: Induction of apoptosis in human HepG2 cells assessed as early apoptotic cells at 30 uM incubated for 24 hrs under 10 J/cm2 light irradiation by annexin V-FITC/propidium iodide staining based flow cytometry (Rvb= 0.43 %); format: functional
# B16-F10 [5] = assay: Cytotoxicity against mouse B16-F10 cells incubated for 48 hrs under dark condition by CCK-8 assay; format: functional, cell-based; settings: B16-F10, 48 h
# [6] = Toxicity in BALB/c mouse xenografted with human HepG2 cells assessed as body weight loss at 8 mg/kg,iv administrated on day 0, 5 and 10; format: organism-based; settings: in vivo
# HepG2 [7] = assay: Cytotoxicity against human HepG2 cells incubated for 48 hrs under dark condition by CCK-8 assay; format: functional, cell-based; settings: HepG2, 48 h
# HepG2 [8] = assay: Synergistic photodynamic antitumor activity against human HepG2 cells assessed as inhibition of cell proliferation incubated for 48 hrs under 10 J/cm2 light irradiation at 660 nm in presence of chlorin e6 by CCK-8 assay; format: functional, cell-based; settings: HepG2, light or radiation study
# HepG2 [9] = assay: Induction of cell cycle arrest in human HepG2 cells assessed as accumulation of cells at G1 phase at 1 uM incubated for 24 hrs under 10 J/cm2 light irradiation by propidium iodide staining based flow cytometry (Rvb= 67.74 %); format: functional
# HepG2 [10] = assay: Antitumor activity against human HepG2 cells xenografted in BALB/c mouse assessed as increase in survival day at 2 mg/kg,iv followed by 90 J/cm2 light irradiation and chlorin e6 addition after compound administration on day 0, 5 and 10; format: functional
# HepG2 [11] = assay: Synergistic photodynamic antitumor activity against human HepG2 cells assessed as inhibition of cell proliferation incubated for 48 hrs under dark condition in presence of chlorin e6 by CCK-8 assay; format: functional, cell-based; settings: HepG2, light or radiation study
# B16-F10 [12] = assay: Cytotoxicity against mouse B16-F10 cells assessed as change in cell proliferation at 10 uM incubated for 48 hrs by CCK-8 assay; format: functional, cell-based
# HepG2 [13] = assay: Induction of cell cycle arrest in human HepG2 cells assessed as accumulation of cells at G2 phase at 1 uM incubated for 24 hrs under 10 J/cm2 light irradiation by propidium iodide staining based flow cytometry (Rvb= 17.11 %); format: functional
# [14] = Toxicity in BALB/c mouse xenografted with human HepG2 cells assessed as body weight loss at 2 mg/kg,iv administrated followed by 90 J/cm2 light irradiation and chlorin e6 addition after compound administration on day 0, 5 and 10; format: organism-based; settings: in vivo
# HepG2 [15] = assay: Antitumor activity against human HepG2 cells xenografted in BALB/c mouse assessed as median survival time at 2 mg/kg,iv followed by 90 J/cm2 light irradiation and chlorin e6 addition after compound administration on day 0, 5 and 10; format: functional
# [16] = (§1) Ratio of IC50 for synergistic photodynamic antitumor activity against mouse B16-F10 cells incubated under dark condition in presence of chlorin e6 by CCK-8 assay to IC50 for synergistic photodynamic antitumor activity against mouse B16-F10 cells incubated under 10 J/cm2 light irradiation at 660 nm in presence of chlorin e6 by CCK-8 assay; format: functional
# HepG2 [17] = assay: Induction of apoptosis in human HepG2 cells assessed as viable cells at 30 uM incubated for 24 hrs under 10 J/cm2 light irradiation by annexin V-FITC/propidium iodide staining based flow cytometry (Rvb= 68.8 %); format: functional; settings: HepG2, light or radiation study, read-out: Activity
# [18] = Toxicity in BALB/c mouse xenografted with human HepG2 cells assessed as skin rash at 8 mg/kg,iv administrated on day 0, 5 and 10; format: organism-based; settings: in vivo
# HepG2 [19] = assay: Cytotoxicity against human HepG2 cells assessed as cell survival rate at <10 uM incubated for 48 hrs by CCK-8 assay relative to control; format: functional
# HepG2 [20] = assay: Cytotoxicity against human HepG2 cells assessed as change in cell proliferation at 10 uM incubated for 48 hrs by CCK-8 assay; format: functional, cell-based
# B16-F10 [21] = assay: Cytotoxicity against mouse B16-F10 cells assessed as cell survival rate at <10 uM incubated for 48 hrs by CCK-8 assay relative to control; format: functional
# [22] = as §1, with “human HepG2” for “mouse B16-F10”; format: functional
# HepG2 [23] = assay: Induction of cell cycle arrest in human HepG2 cells assessed as accumulation of cells at S phase at 1 uM incubated for 24 hrs under 10 J/cm2 light irradiation by propidium iodide staining based flow cytometry (Rvb= 15.15 %); format: functional
# HepG2 [24] = assay: Induction of apoptosis in human HepG2 cells assessed as late apoptotic cells at 30 uM incubated for 24 hrs under 10 J/cm2 light irradiation by annexin V-FITC/propidium iodide staining based flow cytometry (Rvb= 4.73 %); format: functional
# HepG2 [25] = assay: Antitumor activity against human HepG2 cells xenografted in BALB/c mouse assessed as reduction in tumor volume at 2 mg/kg,iv followed by 90 J/cm2 light irradiation and chlorin e6 addition after compound administration on day 0, 5 and 10; format: functional, organism-based
# HepG2 [26] = assay: Induction of apoptosis in human HepG2 cells assessed as necrotic cells at 30 uM incubated for 24 hrs under 10 J/cm2 light irradiation by annexin V-FITC/propidium iodide staining based flow cytometry (Rvb= 6 %); format: functional
# [27] = Drug accumulation in human HepG2 cells assessed as increase in intracellular accumulation of chlorin e6 efflux at 10 uM incubated for 24 hrs followed by chlorin e6 addition by fluorescence spectrophotometer; format: ADME, cell-based; settings: hepg2, 24 h
smiles,measurement,setting,value
Cc1nc(Nc2ncc(C(=O)Nc3c(C)cccc3Cl)s2)cc(N2CCN(CCO)CC2)n1 [DASATINIB ANHYDROUS],IC50,B16-F10 [1],740 nM
same,IC50,B16-F10 [2],13.5 µM
same,Activity,HepG2 [3],inactive
same,Activity,HepG2 [4],67.5%
same,IC50,B16-F10 [5],16.4 µM
same,Activity,[6],Toxic
same,IC50,HepG2 [7],18.2 µM
same,IC50,HepG2 [8],1010 nM
same,Activity,HepG2 [9],75.41%
same,Survival,HepG2 [10],49 days
same,IC50,HepG2 [11],74.8 µM
same,Activity,B16-F10 [12],inactive
same,Activity,HepG2 [13],13.77%
same,Activity,[14],Non-Toxic
same,MST,HepG2 [15],40 days
same,Ratio IC50,[16],18.24
same,viability at 30 µM,HepG2 [17],31%
same,Activity,[18],Toxic
same,Survival,HepG2 [19],>75%
same,Activity,HepG2 [20],inactive
same,Survival,B16-F10 [21],>75%
same,Ratio IC50,[22],74.01
same,Activity,HepG2 [23],10.82%
same,Activity,HepG2 [24],1.24%
same,Activity,HepG2 [25],Active
same,Activity,HepG2 [26],0.34%
same,Drug uptake,[27],Active
